Measurements as given in US10004222B2, “Small molecule ice recrystallization inhibitors and methods of use thereof” (THE UNIVERSITY OF OTTAWA, priority 2012, dated 2018).
“Also recorded” adds a separate entry of the source.

How the values were obtained:
[1] = splat cooling ice recrystallization inhibition (IRI) assay
Procedure: In this assay, the area of ice crystals are measured after a 30 minute annealing time at −6.4° C. and compared to a positive control for ice recrystallization resulting in a quantitative measurement of the mean ice grain size. For a positive control, a phosphate buffered saline (PBS) solution was utilized. All samples were normalized to the PBS positive control. The ice recrystallization inhibition activity of the carbohydrate-based non-ionic surfactants n-octyl-β-D-glucopyranoside (compound 3) and n-octyl-β-D-galactopyranoside (compound 4) is shown in FIG. 1.
In this assay, the area of ice crystals are measured after a 30 minute annealing time at −6.4° C. and compared to a positive control for ice recrystallization resulting in a quantitative measurement of the mean ice grain size. For a positive control, a PBS solution was utilized. All samples were normalized to the PBS positive control.
N-aryl-D-gluconamides (3a), (2a), (4a), and (1b) are a class of low molecular weight carbohydrate-based compounds. The ice recrystallization inhibition activity of (3a), (2a), (4a), and (1b) was assessed using a “splat cooling” assay. In this assay, the area of ice crystals are measured after a 30 minutes annealing time at −6.4° C. and compared to a positive control for ice recrystallization resulting in a quantitative measurement of the mean ice grain size. For a positive control, PBS was utilized. All samples were normalized to the PBS positive control.

[2] = test system: CD34+ cells (hematopoietic stem cells); assay: colony forming unit (CFU) assay after cryopreservation of umbilical cord blood; assay type: cell-based, human; conditions: for BFU-E / CFU-G / CFU-GEMM / CFU-GM / CFU-M / Total Number of Colonies: 10% DMSO, post-thaw, 14 days in Methocult; for combined results of the CFU assays vs control: UCB units 26, 27, 28 combined, FIG. 41
Procedure: Aliquots of LC (50,000 CD34^+ cells) are added to 2.0 mL cryovials. For each experiment, four cryovials are prepared (two for post-thaw viability analysis using flow cytometry and two for functionality analysis using the colony forming unit assay). Cryovials are kept on ice until placement in −80° C. freezer. Cryovials are centrifuged at 400 g and 10° C. for 5 minutes to pellet cells. After centrifugation, the time taken until placement in −80° C. freezer should not exceed 10 minutes. Supernatant is removed by aspiration or by decanting, but preferably by aspiration. Plasma (volume depends on desired cryosolution concentration) is added and cells are suspended by pipetting. Pre-made cryosolutions (see Cryosolutions) are added (volume depends on desired cryosolution concentration) and mixed by pipetting. Cryovials are placed in a Mr. Frosty® rate controlled freezing container which is then placed in a −80° C. freezer for 24 hours. By placing the cryovials in the freezing container, their contents undergo a cooling rate of about −1° C. per minute. After 24 hours, the cryovials are transferred to a liquid nitrogen dewar for storage until thawed for analysis.
Cryosolutions are prepared in distilled autoclaved water supplemented with 0.9% saline and 5% dextran for cryopreservation experiments and diluted with different volumes of plasma in cryovials depending on desired concentration of ice recrystallization inhibitor. N-(4-chlorophenyl)-D-gluconamide (4a) and N-(2-fluorophenyl)-D-gluconamide (2a) are prepared at 25 mM and N-(4-methoxyphenyl)-D-gluconamide (3a) and N-(2,6-difluorobenzyl)-D-gluconamide (1b) are prepared at 55 mM. 100, 50, 33 or 20 μL of 25 mM N-(4-chlorophenyl)-D-gluconamide (4a) or N-(2-fluorophenyl)-D-gluconamide (2a) are added to cryovials containing 50,000 CD34^+ cells suspended in 0, 50, 67, or 80 μL of plasma, respectively, for a final IRI concentration of 25, 12.5, 8 or 5 mM, respectively. 100, 50, 33 or 20 μL of 55 mM N-(4-methoxyphenyl)-D-gluconamide (3a) or N-(2,6-difluorobenzyl)-D-gluconamide (1b) are added to cryovials containing 50,000 CD34^+ cells suspended in 0, 50, 67, or 80 μL of plasma, respectively, for a final IRI concentration of […], 18 or 11 mM, respectively.
Cryovials are thawed in a 37° C. water bath and diluted with 900 μL of IMDM (10% FBS, 1% penicillin/streptomycin). Cryovials are placed on ice until washed. Samples are mixed by pipetting and 80 μL is transferred to a 15 mL Falcon tube. 5 mL of Iscove's Modified Dulbecco's Medium (IMDM) supplemented with 10% fetal bovine serum (FBS) is added and this mixture is centrifuged at 1100 rpm for six minutes to yield a cell pellet and a supernatant. The supernatant is removed by aspiration and the cell pellet is resuspended in 1 mL IMDM (2% FBS) to form a suspension. The suspension is mixed by pipetting. 150 μL of this cell suspension is added to 3 mL Methocult™ media and plating is performed in accordance with manufacturer's instruction. The suspension with Methocult™ media is mixed adequately by vortexing for 20 seconds. The contents are allowed to settle and bubbles are allowed to subside before plating (approximately 5-10 minutes). Using a 3 mL syringe and 16 gauge blunt needles, 2.5 mL of the cell suspension in Methocult™ is taken from the bottom. 1 mL of this 2.5 mL is added to two 5 mL cell culture dishes. The dishes are swirled to ensure cells in Methocult™ medium coat the entire bottom of the dish. A third 5 mL dish is prepared to contain distilled autoclaved water without a lid. These three 5 mL dishes are placed in a 100 mL plate; two 5 mL dishes contain 1 mL of cell suspension in Methocult™ medium with the lid on and one containing distilled autoclaved water with the lid off. The lid is placed on the 100 mL plate and stored in a 37° C. incubator (5% CO2) for two weeks.

Tf1-α cells = assay: cryopreservation of Tf1-α cells, viability/apoptosis by flow cytometry (7-AAD, Annexin V); assay type: cell-based; conditions: 55 mM aryl-aldonamide, post-thaw
Procedure: Tf1-α cells were cultured to a final concentration of 2-3×10^6 cells/mL. Three million cells were transferred into cryovials and media were removed by aspiration after centrifugation at 1000 rpm for five minutes. 100 μL of RPMI media (10% FBS) supplemented with the cryopreservative of interest was added to the cryovial and vortexed. The cryovials were cooled at a rate of −1° C./min for 24 hours to −80° C. before being transferred to a liquid nitrogen dewar for storage until analysis.
Cryovials were thawed under fast thaw conditions (submerged in 37° C. water bath). The cells were then diluted to a concentration of 3×10^6 cells/mL with 1× Annexin V Binding Buffer and a cell count was obtained by hemacytometer (to obtain cell recovery). A 400 μL aliquot was transferred to a flow cytommetry tube. 10 μL of each Annexin V FITC (for apoptosis) and 7-AAD (for viability) dyes were added, the tube was vortexed and allowed to incubate in the dark for 15 minutes. The solution was diluted to 1 mL with 1× Annexin V Binding Buffer, vortexed and analyzed by flow cytommetry. […] With 2% DMSO, cell viability reached about 45%, and with 10% DMSO, cell viability reached around 78%.

[3] = 22 mM in PBS, 30 min annealing at −6.4° C.

Structure (SMILES): OC[C@@H](O)[C@H](O)[C@H](O)[C@@H](O)CO [D-dulcitol, reference compound]
- ice recrystallization inhibition activity ([1]; concentration not given): decreased activity relative to the pyranose forms

Structure (SMILES): CCCCCCCCO[C@@H]1OC(CO)[C@H](O)[C@H](O)C1O (stereo partly drawn) [compound 4, n-octyl-β-D-galactopyranoside]
- ice recrystallization inhibition activity ([1]; 11 mM in PBS): significantly better than 22 mM D-galactose
- ice recrystallization inhibition activity [1, 3]: significantly better than 22 mM D-galactose; also recorded: potent
- ice recrystallization inhibition activity ([1]; 44 mM in PBS): significantly better than 22 mM D-galactose

Structure (SMILES): O=C(Nc1ccccc1Cl)[C@H](O)[C@@H](O)[C@H](O)[C@H](O)CO [(5a), N-(2-chlorophenyl)-D-gluconamide]
- BFU-E ([2]; 5 mM IRI): 19.2
- CFU-G ([2]; 5 mM IRI): 5.0
- CFU-GEMM ([2]; 5 mM IRI): 2.3
- CFU-GM ([2]; 5 mM IRI): 5.2
- CFU-M ([2]; 5 mM IRI): 1.0
- Total Number of Colonies ([2]; 5 mM IRI): 32.7
- BFU-E ([2]; 8 mM IRI): 18.0
- CFU-G ([2]; 8 mM IRI): 5.0
- CFU-GEMM ([2]; 8 mM IRI): 2.0
- CFU-GM ([2]; 8 mM IRI): 4.0
- CFU-M ([2]; 8 mM IRI): 2.0
- Total Number of Colonies ([2]; 8 mM IRI): 31.0
- BFU-E ([2]; 12.5 mM IRI): 27.0
- CFU-G ([2]; 12.5 mM IRI): 8.0
- CFU-GEMM ([2]; 12.5 mM IRI): 4.5
- CFU-GM ([2]; 12.5 mM IRI): 6.5
- CFU-M ([2]; 12.5 mM IRI): 1.5
- Total Number of Colonies ([2]; 12.5 mM IRI): 47.5
- fold increase in functionality relative to the control ([2]; 12.5 mM vs DMSO only): 1.5 fold
- BFU-E ([2]; 25 mM IRI): 20.5
- CFU-G ([2]; 25 mM IRI): 7.0
- CFU-GEMM ([2]; 25 mM IRI): 1.0
- CFU-GM ([2]; 25 mM IRI): 11.0
- CFU-M ([2]; 25 mM IRI): 2.5
- Total Number of Colonies ([2]; 25 mM IRI): 42.0
- combined results of the CFU assays vs control [2]: did not perform particularly well

Structure (SMILES): COc1ccccc1NC(=O)[C@H](O)[C@@H](O)[C@H](O)[C@H](O)CO [(7a), N-(2-methoxyphenyl)-D-gluconamide]
- combined results of the CFU assays vs control [2]: did not perform particularly well

Structure (SMILES): OC[C@@H](O)[C@@H](O)[C@H](O)[C@@H](O)CO [D-sorbitol, reference compound]
- ice recrystallization inhibition activity ([1]; concentration not given): decreased activity relative to the pyranose forms

Structure (SMILES): O=C(Nc1ccc(F)cc1)[C@H](O)[C@@H](O)[C@H](O)[C@H](O)CO [(6a), N-(4-Fluorophenyl)-D-gluconamide]
- combined results of the CFU assays vs control [2]: did not perform particularly well

Structure (SMILES): O=C(Nc1ccccc1)[C@H](O)[C@@H](O)[C@H](O)[C@H](O)CO [(1a), phenyl-aldonamide]
- Apoptosis (%) (Tf1-α cells; 0% DMSO): 0%
- Cell Viability (%) (Tf1-α cells; 0% DMSO): 0.07%
- Apoptosis (%) (Tf1-α cells; 2% DMSO): 0.9%
- Cell Viability (%) (Tf1-α cells; 2% DMSO): 34.71%
- Apoptosis (%) (Tf1-α cells; 10% DMSO): 4.22%
- Cell Viability (%) (Tf1-α cells; 10% DMSO): 68.82%

Structure (SMILES): O=C(NCc1cc(F)cc(F)c1)[C@H](O)[C@@H](O)[C@H](O)[C@H](O)CO [(2b), N-(3,5-difluorobenzyl)-D-gluconamide]
- combined results of the CFU assays vs control [2]: did not perform particularly well

Structure (SMILES): CCCCCCCCO[C@@H]1OC(CO)[C@@H](O)[C@H](O)C1O (stereo partly drawn) [compound 3, n-octyl-β-D-glucopyranoside]
- ice recrystallization inhibition activity [1, 3]: identical to that of D-glucose
- ice recrystallization inhibition activity ([1]; 44 mM in PBS): still identical to that of the 22 mM D-glucose
